From patent US10377770B2 (Novartis AG, priority 2015, dated 2019)

molecular target: C-Raf FL (full length CRAF with Y340E and Y341E activating mutations, co-expressed with h14-3-3 zeta) (Homo sapiens (Human), UniProt P04049, Y340E/Y341E); experiment: In vitro Raf activity determination, AlphaScreen p-MEK readout, c-Raf (C-Raf FL); assay type: biochemical; settings: c-Raf approximately 4 nM, ATP 1 μM, pre-incubation 60 minutes, reaction 1 hour
Method in brief: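 Full-length C-Raf (~4 nM) pre-incubated 60 min at room temperature with compound and kinase-dead biotinylated MEK1 (~10 nM) in Tris pH 7.5, 15 mM MgCl2, BSA, DTT. Reaction started with 1 μM ATP and run 1 h at room temperature. Phospho-MEK detected by AlphaScreen with anti-p-MEK antibody.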

Chain of C-Raf FL (full length CRAF with Y340E and Y341E activating mutations, co-expressed with h14-3-3 zeta) (P04049 whole entry Y340E/Y341E): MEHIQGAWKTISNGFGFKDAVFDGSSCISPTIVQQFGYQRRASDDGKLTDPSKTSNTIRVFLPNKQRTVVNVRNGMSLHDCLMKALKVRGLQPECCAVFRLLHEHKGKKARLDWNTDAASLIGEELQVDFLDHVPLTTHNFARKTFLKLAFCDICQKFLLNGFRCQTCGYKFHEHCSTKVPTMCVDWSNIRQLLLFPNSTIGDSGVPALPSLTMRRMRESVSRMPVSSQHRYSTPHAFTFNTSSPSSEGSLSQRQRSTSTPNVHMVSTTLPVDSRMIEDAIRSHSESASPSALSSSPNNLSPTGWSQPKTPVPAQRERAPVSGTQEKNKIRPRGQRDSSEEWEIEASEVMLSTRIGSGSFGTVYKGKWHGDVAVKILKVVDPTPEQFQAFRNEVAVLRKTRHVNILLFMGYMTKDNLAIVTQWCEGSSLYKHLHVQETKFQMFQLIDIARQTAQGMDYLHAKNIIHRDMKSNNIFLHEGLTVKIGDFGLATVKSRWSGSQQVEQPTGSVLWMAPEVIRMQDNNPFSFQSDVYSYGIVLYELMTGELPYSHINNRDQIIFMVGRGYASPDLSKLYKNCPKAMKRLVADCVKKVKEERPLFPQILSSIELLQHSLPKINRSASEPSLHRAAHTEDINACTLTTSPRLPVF
Chain of C-Raf FL (full length CRAF with Y340E and Y341E activating mutations, co-expressed with h14-3-3 zeta) (P63104 whole entry partner): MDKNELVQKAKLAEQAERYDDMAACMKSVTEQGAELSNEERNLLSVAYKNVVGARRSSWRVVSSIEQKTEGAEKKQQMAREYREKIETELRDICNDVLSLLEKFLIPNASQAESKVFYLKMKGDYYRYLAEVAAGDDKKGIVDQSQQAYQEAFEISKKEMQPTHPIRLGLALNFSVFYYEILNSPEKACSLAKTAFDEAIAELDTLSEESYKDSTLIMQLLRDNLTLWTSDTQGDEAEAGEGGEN

SMILES	IC50
Cc1ccc(NC(=O)c2ccnc(C(C)(F)F)c2)cc1-c1cnc2c(c1)N1CCOC[C@@H]1[C@H](CO)C2 (racemic) [Example 116, rac-trans-2-(1,1-Difluoroethyl)-N-(3-(5-(hydroxymethyl)-1,2,4,4a,5,6-hexahydro-[1,4]oxazino[4,3-a][1,5]naphthyridin-9-yl)-4-methylphenyl)isonicotinamide]	< 0.0017 nM
Cc1ncc(NC(=O)c2cccc(C(F)(F)F)c2)cc1-c1cnc2c(c1)N1CCOC[C@@H]1[C@H](CO)C2 (racemic) [Example 119, rac-trans-N-(5-(5-(Hydroxymethyl)-1,2,4,4a,5,6-hexahydro-[1,4]oxazino[4,3-a][1,5]naphthyridin-9-yl)-6-methylpyridin-3-yl)-3-(trifluoromethyl)benzamide]	0.01 nM
Cc1ccc(NC(=O)c2ccnc(C(F)(F)F)c2)cc1-c1cnc2c(c1)N1CCOCC1C(CO)C2 (racemic) [Example 123, rac-cis-N-(3-(5-(hydroxymethyl)-1,2,4,4a,5,6-hexahydro-[1,4]oxazino[4,3-a][1,5]naphthyridin-9-yl)-4-methylphenyl)-2-(trifluoromethyl)isonicotinamide]	0.0052 nM
Cc1ccc(NC(=O)c2ccnc(C(C)(F)F)c2)cc1-c1cnc2c(c1)N1CCOCC1CC(=O)N2 (racemic) [Example 124, rac-2-(1,1-Difluoroethyl)-N-(4-methyl-3-(6-oxo-1,2,4a,5,6,7-hexahydro-4H-[1,4]oxazino[4,3-d]pyrido[2,3-b][1,4]diazepin-10-yl)phenyl)isonicotinamide]	0.0094 nM
CCN1C(=O)CC2COCCN2c2cc(-c3cc(NC(=O)c4ccnc(C(C)(F)F)c4)ccc3C)cnc21 (racemic) [Example 125, rac-2-(1,1-Difluoroethyl)-N-(3-(7-ethyl-6-oxo-1,2,4a,5,6,7-hexahydro-4H-[1,4]oxazino[4,3-d]pyrido[2,3-b][1,4]diazepin-10-yl)-4-methylphenyl)isonicotinamide]	0.034 nM
CCN1C(=O)CC2COCCN2c2cc(-c3cc(NC(=O)c4ccnc(C(F)(F)F)c4)ccc3C)cnc21 (racemic) [Example 128, rac-N-(3-(7-Ethyl-6-oxo-1,2,4a,5,6,7-hexahydro-4H-[1,4]oxazino[4,3-d]pyrido[2,3-b][1,4]diazepin-10-yl)-4-methylphenyl)-2-(trifluoromethyl)isonicotinamide]	0.023 nM
CCN1C(=O)CC2COCCN2c2cc(-c3cc(NC(=O)c4cccc(C(F)(F)F)c4)cnc3C)cnc21 (racemic) [Example 131, rac-N-(5-(7-Ethyl-6-oxo-1,2,4a,5,6,7-hexahydro-4H-[1,4]oxazino[4,3-d]pyrido[2,3-b][1,4]diazepin-10-yl)-6-methylpyridin-3-yl)-3-(trifluoromethyl)benzamide]	0.06 nM
CCN1C(=O)C2COCCN2c2cc(-c3cc(NC(=O)c4ccnc(C(F)(F)F)c4)ccc3C)nnc21 (racemic) [Example 132, rac-N-(3-(5-Ethyl-6-oxo-5,6,6a,7,9,10-hexahydropyridazino[3′,4′:5,6]pyrazino[2,1-c][1,4]oxazin-2-yl)-4-methylphenyl)-2-(trifluoromethyl)isonicotinamide]	0.14 nM
Cc1ccc(NC(=O)c2ccnc(C(C)(F)F)c2)cc1-c1cc2c(nn1)OCC1COCCN21 (racemic) [Example 135, rac-2-(1,1-Difluoroethyl)-N-(4-methyl-3-(6a,7,9,10-tetrahydro-6H-[1,4]oxazino[4,3-d]pyridazino[3,4-b][1,4]oxazin-2-yl)phenyl)isonicotinamide]	0.019 nM
Cc1ccc(NC(=O)c2ccnc(C(C)(F)F)c2)cc1-c1cc2c(nn1)OC(C)(C)C1COCCN21 (racemic) [Example 136, rac-2-(1,1-Difluoroethyl)-N-(3-(6,6-dimethyl-6a,7,9,10-tetrahydro-6H-[1,4]oxazino[4,3-d]pyridazino[3,4-b][1,4]oxazin-2-yl)-4-methylphenyl)isonicotinamide]	0.018 nM
Cc1ccc(NC(=O)c2ccnc(C(F)(F)F)c2)cc1-c1cc2c(nn1)OC(C)(C)C1COCCN21 (racemic) [Example 139, rac-N-(3-(6,6-dimethyl-6a,7,9,10-tetrahydro-6H-[1,4]oxazino[4,3-d]pyridazino[3,4-b][1,4]oxazin-2-yl)-4-methylphenyl)-2-(trifluoromethyl)isonicotinamide]	0.057 nM
Cc1ccc(NC(=O)c2ccnc(C(C)(C)F)c2)cc1-c1cnc2c(c1)N1CCOC[C@H]1C[C@@H]2O (racemic) [Example 141, rac-cis-2-(2-fluoropropan-2-yl)-N-(3-(6-hydroxy-1,2,4,4a,5,6-hexahydro-[1,4]oxazino[4,3-a][1,5]naphthyridin-9-yl)-4-methylphenyl)isonicotinamide]	0.0042 nM
Cc1ccc(NC(=O)c2cncc(C(F)(F)F)c2)cc1-c1cnc2c(c1)N1CCOC[C@H]1C[C@@H]2O (racemic) [Example 144, rac-cis-N-(3-(6-hydroxy-1,2,4,4a,5,6-hexahydro-[1,4]oxazino[4,3-a][1,5]naphthyridin-9-yl)-4-methylphenyl)-5-(trifluoromethyl)nicotinamide]	0.0023 nM
Cc1ccc(NC(=O)c2cc(C(F)(F)F)ccn2)cc1-c1cnc2c(c1)N1CCOC[C@H]1C[C@@H]2O (racemic) [Example 147, rac-cis-N-(3-(6-hydroxy-1,2,4,4a,5,6-hexahydro-[1,4]oxazino[4,3-a][1,5]naphthyridin-9-yl)-4-methylphenyl)-4-(trifluoromethyl)picolinamide]	0.0026 nM
Cc1ncc(NC(=O)c2ccnc(C(C)(F)F)c2)cc1-c1cnc2c(c1)N1CCOC[C@H]1C[C@@H]2O (racemic) [Example 148, rac-cis-2-(1,1-difluoroethyl)-N-(5-(6-hydroxy-1,2,4,4a,5,6-hexahydro-[1,4]oxazino[4,3-a][1,5]naphthyridin-9-yl)-6-methylpyridin-3-yl)isonicotinamide]	0.046 nM
Cc1ccc(NC(=O)c2ccnc(C(C)(C)C#N)c2)cc1-c1cnc2c(c1)N1CCOC[C@H]1C[C@@H]2O (racemic) [Example 149, rac-cis-2-(2-cyanopropan-2-yl)-N-(3-(6-hydroxy-1,2,4,4a,5,6-hexahydro-[1,4]oxazino[4,3-a][1,5]naphthyridin-9-yl)-4-methylphenyl)isonicotinamide]	0.013 nM
Cc1ccc(NC(=O)c2ccnc(C(C)(F)F)c2)cc1-c1cnc2c(c1)N1CCOCC1C1(COC1)C2 (racemic) [Example 152, rac-2-(1,1-difluoroethyl)-N-(4-methyl-3-(2,4,4a,6-tetrahydro-1H-spiro[[1,4]oxazino[4,3-a][1,5]naphthyridine-5,3′-oxetan]-9-yl)phenyl)isonicotinamide]	0.011 nM
Cc1ncc(NC(=O)c2cccc(C(F)(F)F)c2)cc1-c1cnc2c(c1)N1CCOCC1C1(COC1)C2 (racemic) [Example 156, rac-N-(6-methyl-5-(2,4,4a,6-tetrahydro-1H-spiro[[1,4]oxazino[4,3-a][1,5]naphthyridine-5,3′-oxetan]-9-yl)pyridin-3-yl)-3-(trifluoromethyl)benzamide]	0.048 nM
Cc1ccc(NC(=O)c2ccnc(C(C)(C)C#N)c2)cc1-c1cnc2c(c1)N1CCOCC1C1(COC1)C2 (racemic) [Example 157, rac-2-(2-cyanopropan-2-yl)-N-(4-methyl-3-(2,4,4a,6-tetrahydro-1H-spiro[[1,4]oxazino[4,3-a][1,5]naphthyridine-5,3′-oxetan]-9-yl)phenyl)isonicotinamide]	0.16 nM
Cc1ccc(NC(=O)c2ccnc(C(C)(F)F)c2)cc1-c1cnc2c(c1)N1CCOCC1C(CO)(CO)C2 (racemic) [Example 158, rac-N-(3-(5,5-bis(hydroxymethyl)-yl)-1,2,4,4a,5,6-hexahydro-[1,4]oxazino[4,3-a][1,5]naphthyridin-9-yl)-4-methylphenyl)-2-(1,1-difluoroethyl)isonicotinamide]	0.01 nM
Cc1ccc(NC(=O)c2cc(C(F)(F)F)ccn2)cc1-c1cnc2c(c1)N1CCOCC1C(CO)(CO)C2 (racemic) [Example 159, rac-N-(3-(5,5-bis(hydroxymethyl)-1,2,4,4a,5,6-hexahydro-[1,4]oxazino[4,3-a][1,5]naphthyridin-9-yl)-4-methylphenyl)-4-(trifluoromethyl)picolinamide]	0.0068 nM
Cc1ccc(NC(=O)c2ccnc(C(C)(F)F)c2)cc1-c1cnc2c(c1)N1CCOC[C@H]1C(C)(C)[C@@H]2O (racemic) [Example 160, rac-cis-2-(1,1-difluoroethyl)-N-(3-(6-hydroxy-5,5-dimethyl-1,2,4,4a,5,6-hexahydro-[1,4]oxazino[4,3-a][1,5]naphthyridin-9-yl)-4-methylphenyl)isonicotinamide]	0.027 nM
Cc1ccc(NC(=O)c2ccnc(C(C)(F)F)c2)cc1-c1cnc2c(c1)N1CCOC[C@H]1C(F)(F)[C@@H]2O (racemic) [Example 163, rac-cis-N-(3-(5,5-difluoro-6-hydroxy-1,2,4,4a,5,6-hexahydro-[1,4]oxazino[4,3-a][1,5]naphthyridin-9-yl)-4-methylphenyl)-2-(1,1-difluoroethyl)isonicotinamide]	0.02 nM
Cc1ccc(NC(=O)c2ccnc(C(F)(F)F)c2)cc1-c1cnc2c(c1)N1CCOCC1C(F)(F)C2O (racemic) [Example 166, rac-cis-N-(3-(5,5-difluoro-6-hydroxy-1′2′4′4a′5′6-hexahydro-[1,4]oxazino[4,3-a][1,5]naphthyridin-9-yl)-4-methylphenyl)-2-(trifluoromethyl)isonicotinamide]	0.011 nM
Cc1ccc(NC(=O)c2ccnc(C(C)(F)F)c2)cc1-c1cnc2c(c1)N1CCOC[C@H]1C[C@@]2(O)C(F)(F)F (racemic) [Example 169, rac-cis-2-(1,1-difluoroethyl)-N-(3-(6-hydroxy-6-(trifluoromethyl)-1,2,4,4a,5,6-hexahydro-[1,4]oxazino[4,3-a][1,5]naphthyridin-9-yl)-4-methylphenyl)isonicotinamide]	0.032 nM
